From patent US9504730B2, “Method of achieving a thymosin beta 4 concentration in a human patient” (REGENERX BIOPHARMACEUTICALS, INC., priority 2010, dated 2016)

How the values were obtained:
[1] = Thymosin dosage regimens calculated with Formula II; parameters: species or system human
Excerpt: A physician or health care provider may first determine a desired concentration of thymosin beta 4 (or a desired increase in concentration of thymosin beta 4 from an existing level) in a body portion of a live human patient in need of treatment. The physician or health care provider may then calculate the dosage necessary to achieve the desired concentration using the formula: C=(A)D·t^−B (Formula I), or D=C/(A)(t^−B) (Formula IA), wherein C is the predetermined thymosin beta 4 concentration to be provided in ng/mL, D is the dosage of thymosin beta 4 administered in mg, t is the time elapsed after administration of an initial dosage of thymosin beta 4 in hours (t is treated as a constant in this equation), A is about 30 to about 38, and B is about 0.5 to about 1. According to one embodiment, the formula is C=(35.6)D·t^−0.754 (Formula II). Time, t, may be 1, and D may equal C/35.6.
A patient in need of thymosin beta 4 treatment with a concentration of 10,000 ng/mL exogenous thymosin beta 4 is administered thymosin beta 4 according to a dosage schedule wherein D and t are calculated using C=(35.6)D*t[…].
A patient in need of thymosin beta 4 treatment with a concentration of 10,000 ng/mL exogenous thymosin beta 4 with a 1-hour dosing frequency is administered D=C/(A)t^−B=10,000 ng/mL/(35.6)(1^−0.75 h)=281 mg thymosin beta 4. […]

[2] = Analysis of TB4 concentration data from human patients administered different dosages of thymosin beta 4; type: in vivo; parameters: key to whether first dose brings TB4 concentration that high: ~: indicates first dose does not bring TB4 concentration that high; *: indicates the most efficient treatment (as determined by total required)
Excerpt: The above formulas were developed by analysis of data from human patients who had been administered different dosages of thymosin beta 4. The frequency of dosing needed between dosages to achieve the desired concentration over time, multiplied by the dosage, gave the total drug administered in a 24-hour period. The dosage that maintained the required concentration with the lowest total drug administered was termed the most efficient. See Exampe I, below.
Based on the data collected, concentrations of TB4 in the body portion follow (especially soon after administration, with a decreasing correlation over time) a power function. An estimation of the concentration of thymosin beta 4 at 1 hour was determined using this model with an average within 10% of the experimental mean for the concentrations tested. The concentrations in the tested patients at 1 hour give an approximate range that can be efficiently maintained because the concentrations at about 1 hour are approximately 15% of the initial concentration (mean 14.7%, median 13.3%). The concentration found in human patients at 5 minutes after initial administration intravenously was defined as the initial concentration, and as Cmax, i.e. the maximum concentration achieved after administration of a dose. For the calculations made in the studies, the range of concentration which is the effective and desired dose was assumed to be 5-25% of this initial concentration (Cmax). In general, intervals between intravenous treatment times of about an hour also are the most reliably efficient in achieving and maintaining a particular concentration. Therefore, in certain embodiments, when calculating dosage using Formula I or Formula II, t may equal about 1. The concentration which is achieved with a particular dosage of thymosin beta 4 at 5 minutes (Cmax) can be found using Formula I by calculating C using the particular dosage (D) and 0.083 hours (5 minutes) as t.
Using Formula II, concentration at 1 hour is (35.6)D. In certain embodiments, the formula gives the concentration with an average error of about 10%, calculated against the experimental mean from in vivo patient data. Formulas I and II where t=1, therefore, provide a reasonable estimation of a concentration that is an acceptable and effective concentration to provide therapeutic treatment.
Treatment regimens to maintain a given dose (data summary): […]

[3] = Concentration > 1000 ng/mL in blood, infusion dosage 42 mg per dose
[4] = Concentration > 1000 ng/mL in blood, infusion dosage 140 mg per dose
[5] = Concentration > 1000 ng/mL in blood, infusion dosage 420 mg per dose
[6] = Concentration > 1000 ng/mL in blood, infusion dosage 1260 mg per dose
[7] = Concentration > 5000 ng/mL in blood, infusion dosage 42 mg per dose
[8] = Concentration > 5000 ng/mL in blood, infusion dosage 140 mg per dose
[9] = Concentration > 5000 ng/mL in blood, infusion dosage 420 mg per dose
[10] = Concentration > 5000 ng/mL in blood, infusion dosage 1260 mg per dose
[11] = Concentration > 10000 ng/mL in blood, infusion dosage 42 mg per dose
[12] = Concentration > 10000 ng/mL in blood, infusion dosage 140 mg per dose
[13] = Concentration > 10000 ng/mL in blood, infusion dosage 420 mg per dose
[14] = Concentration > 10000 ng/mL in blood, infusion dosage 1260 mg per dose
[15] = Concentration > 20000 ng/mL in blood, infusion dosage 140 mg per dose
[16] = Concentration > 20000 ng/mL in blood, infusion dosage 420 mg per dose
[17] = Concentration > 20000 ng/mL in blood, infusion dosage 1260 mg per dose
[18] = Concentration > 40000 ng/mL in blood, infusion dosage 420 mg per dose
[19] = Concentration > 40000 ng/mL in blood, infusion dosage 1260 mg per dose
[20] = human patients, intravenous, initial concentration = 5 minutes after administration (Cmax)

SMILES: CC[C@H](C)[C@H](NC(=O)[C@H](CCC(=O)O)NC(=O)[C@H](C)NC(=O)[C@H](CCSC)NC(=O)[C@H](CC(=O)O)NC(=O)[C@@H]1CCCN1C(=O)[C@H](CCCCN)NC(=O)[C@H](CC(=O)O)NC(=O)[C@H](CO)NC(C)=O)C(=O)N[C@@H](CCC(=O)O)C(=O)N[C@@H](CCCCN)C(=O)N[C@@H](Cc1ccccc1)C(=O)N[C@@H](CC(=O)O)C(=O)N[C@@H](CCCCN)C(=O)N[C@@H](CO)C(=O)N[C@@H](CCCCN)C(=O)N[C@@H](CC(C)C)C(=O)N[C@@H](CCCCN)C(=O)N[C@@H](CCCCN)C(=O)N[C@H](C(=O)N[C@@H](CCC(=O)O)C(=O)N[C@H](C(=O)N[C@@H](CCC(N)=O)C(=O)N[C@@H](CCC(=O)O)C(=O)N[C@@H](CCCCN)C(=O)N[C@@H](CC(N)=O)C(=O)N1CCC[C@H]1C(=O)N[C@@H](CC(C)C)C(=O)N1CCC[C@H]1C(=O)N[C@@H](CO)C(=O)N[C@@H](CCCCN)C(=O)N[C@@H](CCC(=O)O)C(=O)N[C@H](C(=O)N[C@H](C(=O)N[C@@H](CCC(=O)O)C(=O)N[C@@H](CCC(N)=O)C(=O)N[C@@H](CCC(=O)O)C(=O)N[C@@H](CCCCN)C(=O)N[C@@H](CCC(N)=O)C(=O)N[C@@H](C)C(=O)NCC(=O)N[C@@H](CCC(=O)O)C(=O)N[C@@H](CO)C(=O)O)[C@@H](C)CC)[C@@H](C)O)[C@@H](C)O)[C@@H](C)O [thymosin beta 4, Thymosin beta 4]
- time t between dosage forms calculated for the desired concentration ([1]; 10,000 ng/mL exogenous thymosin beta 4, 200 mg unit dosage forms): 0.637 h
- dosage D calculated for the desired concentration ([1]; 10,000 ng/mL exogenous thymosin beta 4, 1-hour dosing frequency): 281 mg
- A of Formula II C=(A)D·t^−B (concentration at 1 hour is (35.6)D) ([2]; C in ng/mL, D in mg, t in hours, developed by analysis of human patient data): 35.6
- Frequency of administration [2, 3]: 2 h
- Total TB4 required for 24 hour treatment [2, 3]: 504 mg
- Frequency of administration [2, 4]: 3 h
- Total TB4 required for 24 hour treatment [2, 4]: 1120 mg
- Frequency of administration [2, 5]: 6 h
- Total TB4 required for 24 hour treatment [2, 5]: 1680 mg
- Frequency of administration [2, 6]: 9 h
- Total TB4 required for 24 hour treatment [2, 6]: 3360 mg
- Frequency of administration [2, 7]: 0.167 h
- Total TB4 required for 24 hour treatment [2, 7]: 6048 mg
- Frequency of administration [2, 8]: 1 h
- Total TB4 required for 24 hour treatment [2, 8]: 5040 mg
- Frequency of administration [2, 9]: 2 h
- Total TB4 required for 24 hour treatment [2, 9]: 5040 mg
- Frequency of administration [2, 10]: 4 h
- Total TB4 required for 24 hour treatment [2, 10]: 7560 mg
- Frequency of administration [2, 11]: 0.083 h
- Total TB4 required for 24 hour treatment [2, 11]: 12096 mg
- Frequency of administration [2, 12]: 0.333 h
- Total TB4 required for 24 hour treatment [2, 12]: 10080 mg
- Frequency of administration [2, 13]: 1 h
- Total TB4 required for 24 hour treatment [2, 13]: 10080 mg
- Frequency of administration [2, 14]: 3 h
- Total TB4 required for 24 hour treatment [2, 14]: 10080 mg
- whether first dose brings TB4 concentration that high ([2]; Concentration > 20000 ng/mL in blood, infusion dosage 42 mg per dose): ~42
- Frequency of administration [2, 15]: 0.167 h
- Total TB4 required for 24 hour treatment [2, 15]: 20160 mg
- Frequency of administration [2, 16]: 0.667 h
- Total TB4 required for 24 hour treatment [2, 16]: 15120 mg
- Frequency of administration [2, 17]: 2 h
- Total TB4 required for 24 hour treatment [2, 17]: 15120 mg
- whether first dose brings TB4 concentration that high ([2]; Concentration > 40000 ng/mL in blood, infusion dosage 42 mg per dose): ~42
- whether first dose brings TB4 concentration that high ([2]; Concentration > 40000 ng/mL in blood, infusion dosage 140 mg per dose): ~140
- Frequency of administration [2, 18]: 0.167 h
- Total TB4 required for 24 hour treatment [2, 18]: 60480 mg
- Frequency of administration [2, 19]: 1 h
- Total TB4 required for 24 hour treatment [2, 19]: 30240 mg
- average concentration at 1 hour after administration, % of Cmax (SD) ([2]; human patients, experimental data, Cmax = 5-minute concentration): 15.7%±1.32%
- concentration at about 1 hour as % of the initial concentration, mean [2, 20]: 14.7%
- concentration at about 1 hour as % of the initial concentration, median [2, 20]: 13.3%
- concentration at about 1 hour as % of the initial concentration ([2]; human patients, intravenous, initial concentration = 5 minutes after administration (Cmax), approximate): approximately 15%
- Cmax ([2]; human, in vivo, intravenous, 6 mg/kg to 18 mg/kg dosing (420 mg and 1260 mg unit dose, respectively), read-out: Cmax levels): 90 to 350 µg/mL
